# Results reported in the Kinase Knowledgebase extract (Sharma et al. 2016).
# What was measured:
# [1] = target: EGFR (human) (UniProt P00533); settings: a431
# [2] = target: EGFR (UniProt P00533); settings: concentration not given here
# EGFR, sequence (P00533 whole entry, looked up): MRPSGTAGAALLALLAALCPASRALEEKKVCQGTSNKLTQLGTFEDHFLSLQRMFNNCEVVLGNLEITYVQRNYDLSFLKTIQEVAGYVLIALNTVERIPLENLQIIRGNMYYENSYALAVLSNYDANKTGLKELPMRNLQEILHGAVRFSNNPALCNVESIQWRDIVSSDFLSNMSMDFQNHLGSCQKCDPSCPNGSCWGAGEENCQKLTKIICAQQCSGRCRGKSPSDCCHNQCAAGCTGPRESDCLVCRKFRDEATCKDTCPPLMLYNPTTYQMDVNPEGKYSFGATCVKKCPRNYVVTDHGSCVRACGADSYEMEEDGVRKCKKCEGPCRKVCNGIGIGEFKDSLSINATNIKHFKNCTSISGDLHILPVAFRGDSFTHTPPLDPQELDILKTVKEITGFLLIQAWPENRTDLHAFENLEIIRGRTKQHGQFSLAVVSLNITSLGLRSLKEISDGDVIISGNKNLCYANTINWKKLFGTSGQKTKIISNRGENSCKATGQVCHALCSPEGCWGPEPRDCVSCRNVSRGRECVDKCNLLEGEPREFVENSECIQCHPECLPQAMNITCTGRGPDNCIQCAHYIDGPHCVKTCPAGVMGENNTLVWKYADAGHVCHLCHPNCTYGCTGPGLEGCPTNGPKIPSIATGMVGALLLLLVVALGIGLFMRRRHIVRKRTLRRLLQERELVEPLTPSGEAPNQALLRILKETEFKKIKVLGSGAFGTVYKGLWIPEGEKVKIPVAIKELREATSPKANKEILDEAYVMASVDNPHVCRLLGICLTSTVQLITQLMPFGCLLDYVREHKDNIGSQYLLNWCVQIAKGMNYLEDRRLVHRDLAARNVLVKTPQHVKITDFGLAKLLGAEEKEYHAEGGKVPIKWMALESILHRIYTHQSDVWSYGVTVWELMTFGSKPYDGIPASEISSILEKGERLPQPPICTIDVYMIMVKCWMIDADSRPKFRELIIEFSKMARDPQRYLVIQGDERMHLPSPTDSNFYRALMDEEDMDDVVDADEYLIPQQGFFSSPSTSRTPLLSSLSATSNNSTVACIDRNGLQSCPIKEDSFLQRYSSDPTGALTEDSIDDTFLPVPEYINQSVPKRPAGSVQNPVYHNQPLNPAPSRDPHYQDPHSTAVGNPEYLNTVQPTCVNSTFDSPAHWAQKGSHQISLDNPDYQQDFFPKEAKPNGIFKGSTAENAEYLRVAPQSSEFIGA
# EGFR (human), sequence (P00533 whole entry, looked up): as above
SMILES,IC50 [1],inhibition [2]
COc1cc(N)c(C(=O)Nc2cccc(Br)c2)c(OC)c1OC,920 µM,< 50%
COc1cc(N)c(C(=O)Nc2cccc(Br)c2)cc1OC,340 µM,–
COc1cc(N)c(C(=N)Nc2cccc(Cl)c2)cc1OC,460 µM,–
COc1cc2ncnc(Nc3cccc(Cl)c3)c2cc1OC,–,10%
COc1cc(N)c(C(=O)NC(C)c2ccccc2)cc1OC (stereo unspecified),> 1000 µM,–
COc1cc(N)c(C(=N)Nc2cccc(Br)c2)cc1OC,300 µM,–
COc1cc(N)c(C(=O)Nc2cccc(C(F)(F)F)c2)cc1OC,470 µM,–
COc1cc2c(cc1OC)C(Nc1ccc(F)c(Cl)c1)=NC(C)(C)N2,90 µM,–
COc1cc(N)c(C(=O)Nc2ccccn2)cc1OC,> 1000 µM,–
COc1cc(N)c(C(=N)Nc2ccc(F)c(Cl)c2)cc1OC,200 µM,< 50%
COc1cc2c(cc1OC)C(Nc1cccc(Br)c1)=NC(C)(C)N2,130 µM,–
COc1cc(N)c(C(=O)Nc2cccnc2)cc1OC,> 1000 µM,–
COc1cccc(NC(=O)c2cc(OC)c(OC)cc2N)c1,200 µM,–
COc1cc2c(cc1OC)C(Nc1cccc(Cl)c1)=NC(C)(C)N2,200 µM,–
COc1cc(N)c(C(=O)NC2CCCCC2)cc1OC,> 1000 µM,–
COc1cc(N)c(C(=O)Nc2ccc(F)c(Cl)c2)cc1OC,> 1000 µM,–
COc1cccc(NC(=N)c2cc(OC)c(OC)cc2N)c1,340 µM,–
COc1cccc(NC2=NC(C)(C)Nc3cc(OC)c(OC)cc32)c1,320 µM,–
COc1cc(N)c(C(=O)Nc2ccncc2)cc1OC,> 1000 µM,–
